`*C(=O)OCCN(CCOC(=O)c1ccc2c(c1)C(=O)N(c1cccc(N3C(=O)c4ccc(*)cc4C3=O)c1)C2=O)c1ccc(/N=N/c2ccc(C)cc2)cc1` (repeat unit): the glass transition temperature is 171.00 °C. The result for `*C(CC(C)C)C(=O)Nc1ccc(Oc2ccc(NC(=O)NCC3(C)CC(NC(=O)Nc4ccc(Oc5ccc(NC(=O)C(CC(C)C)n6c(=O)c7cc8c(=O)n(*)c(=O)c8cc7c6=O)cc5)cc4)CC(C)(C)C3)cc2)cc1` (repeat unit) reads 147.50 °C; that for `*CC#CC#CCOc1ccc(C(=O)OCCN(CCOC(=O)c2ccc(O*)cc2)c2ccc(/N=N/c3ccc(/N=N/c4cc(C)c(C#N)c(C)c4)cc3)cc2)cc1` (repeat unit), 120.00 °C; that for `*CC(=O)Nc1ccc(C2(c3ccc(NC(=O)c4ccc5c(c4)C(=O)N(*)C5=O)cc3)c3ccccc3-c3ccccc32)cc1` (repeat unit), 345.00 °C.

Consider `*CC(=O)Nc1ccc(Cc2ccc(NC(=O)c3ccc4c(c3)C(=O)N(*)C4=O)cc2)cc1` (repeat unit), for which the glass transition temperature stood at 266.00 °C. The result for `*CC(=O)Nc1ccc(Oc2ccc(Oc3ccc(NC(=O)CN4C(=O)c5ccc(C(=O)c6ccc7c(c6)C(=O)N(*)C7=O)cc5C4=O)cc3)cc2)cc1` (repeat unit) reads 230.00 °C; that for `*CC(=O)Nc1ccc(Oc2cccc(NC(=O)CN3C(=O)c4ccc(C(=O)c5ccc6c(c5)C(=O)N(*)C6=O)cc4C3=O)c2)cc1` (repeat unit), 226.00 °C. The same measure for `*CC(=O)Nc1ccc(Oc2cccc(Oc3ccc(NC(=O)CN4C(=O)c5ccc(C(c6ccc7c(c6)C(=O)N(*)C7=O)(C(F)(F)F)C(F)(F)F)cc5C4=O)cc3)c2)cc1` (repeat unit): 221.00 °C; for `*CC(=O)Nc1ccc(S(=O)(=O)c2ccc(NC(=O)c3ccc4c(c3)C(=O)N(*)C4=O)cc2)cc1` (repeat unit): 232.00 °C; for `*CC(C)C(=O)N*` (repeat unit): 96.00 °C. Compound `*CCC(=O)NCc1cc(C)c(CNC(=O)CCO*)cc1C` (repeat unit) showed a glass transition temperature of 80.00 °C. `*CCC(=O)Nc1ccc(Cc2ccc(NC(=O)CCN3C(=O)c4ccc(C(=O)c5ccc6c(c5)C(=O)N(*)C6=O)cc4C3=O)cc2)cc1` (repeat unit) returned a glass transition temperature of 221.00 °C. Regarding `*CCC(=O)Nc1ccc(Oc2ccc(Oc3ccc(NC(=O)CCN4C(=O)c5ccc(C(=O)c6ccc7c(c6)C(=O)N(*)C7=O)cc5C4=O)cc3)cc2)cc1` (repeat unit), the glass transition temperature stood at 221.00 °C.

As for `*CCC(C)(C)CC(C)CNC(=O)CCCCC(=O)N*` (repeat unit), the glass transition temperature came out at 65.00 °C. The same measure for `*CCC(C)(C)CC(C)CNC(=O)c1ccc(C(=O)N*)cc1` (repeat unit): 148.00 °C; for `*CCC(C)C(C)CCNC(=O)c1cccc(C(=O)N*)c1` (repeat unit): 125.00 °C. The same measure for `*CCC(C)O*` (repeat unit): -50.00 °C; for `*CCCCSS*` (repeat unit): -55.00 °C. With `*CCN(*)C(=O)c1c(F)ccc(F)c1F` (repeat unit), the glass transition temperature turned out to be 124.00 °C. The result for `*CCN(*)C(=O)c1cc(F)cc(F)c1` (repeat unit) reads 106.00 °C; that for `*CCN(*)C(=O)c1cc(F)ccc1F` (repeat unit), 112.00 °C; that for `*CCN(*)C(=O)c1ccc(F)c(F)c1` (repeat unit), 101.00 °C.

`*CCN(*)C(=O)c1ccc(SC(F)(F)F)cc1` (repeat unit) displayed a glass transition temperature of 100.00 °C. The result for `*CCN(*)C(=O)c1ccc2ccccc2c1` (repeat unit) reads 130.00 °C. The same measure for `*CCN(*)C(C)=O` (repeat unit): 80.00 °C.

`*CCN(CCN1C(=O)c2ccc(C(c3ccc4c(c3)C(=O)N(*)C4=O)(C(F)(F)F)C(F)(F)F)cc2C1=O)c1ccc(/C=C/C2=CC(=C(C#N)C#N)CC(C)(C)C2)cc1` (repeat unit) showed a glass transition temperature of 224.00 °C. With `*CCN(CCN1C(=O)c2ccc(C(c3ccc4c(c3)C(=O)N(*)C4=O)(C(F)(F)F)C(F)(F)F)cc2C1=O)c1ccc(/N=N/c2ccc([N+](=O)[O-])cc2C)cc1` (repeat unit), the glass transition temperature worked out at 205.00 °C.

The compound `*CCN(CCOC(=O)Nc1ccc(C)c(NC(=O)O*)c1)c1ccc(/N=N/c2ccc(/C=C/c3nc4ccc([N+](=O)[O-])cc4n3CC)cc2)cc1` (repeat unit) yielded a glass transition temperature of 171.00 °C. `*CCN(CCOC(=O)Nc1ccc(C)c(NC(=O)O*)c1)c1ccc(/N=N/c2ccc(B(c3c(C)cc(C)cc3C)c3c(C)cc(C)cc3C)cc2)cc1` (repeat unit) displayed a glass transition temperature of 159.00 °C. The same measure for `*CCN(CCOC(=O)Nc1ccc(C)c(NC(=O)O*)c1)c1ccc(/N=N/c2ccc([N+](=O)[O-])cc2C)c(C)c1` (repeat unit): 135.00 °C. For the compound `*CCN(CCOC(=O)Nc1ccc(C)c(NC(=O)O*)c1)c1ccc([N+](=O)[O-])cc1C` (repeat unit), the glass transition temperature came out at 98.00 °C. The result for `*CCN(CCOC(=O)Nc1ccc(Cc2ccc(NC(=O)O*)cc2)cc1)c1ccc(/N=N/c2ccc([N+](=O)[O-])cc2)c(C)c1` (repeat unit) reads 115.00 °C. In the case of `*CCN(CCOC(=O)Nc1ccc(Cc2ccc(NC(=O)O*)cc2)cc1)c1ccc(/N=N/c2ccc([N+](=O)[O-])cc2C)c(C)c1` (repeat unit), the glass transition temperature stood at 130.00 °C. The result for `*CCN(CCOC(=O)c1cccc(C(=O)O*)c1)c1ccc(/N=N/c2ccc(-c3nc4ccc([N+](=O)[O-])cc4n3CC)cc2)cc1` (repeat unit) reads 147.00 °C. The same measure for `*CCOC(=O)CCSCCC(=O)O*` (repeat unit): -43.00 °C; for `*CCOCCC(=O)O*` (repeat unit): -35.00 °C; for `*CCOCCOCCOC(=O)CCSCCC(=O)O*` (repeat unit): -35.00 °C. `*CCOCCOCCOCCOCCOC(=O)CCSCCC(=O)O*` (repeat unit) had a glass transition temperature of -39.00 °C.

Consider `*CCc1ccc(*)c(Cl)c1` (repeat unit), for which the glass transition temperature amounted to 75.00 °C. Regarding `*CCc1ccc(*)c2ccccc12` (repeat unit), the glass transition temperature was determined as 160.00 °C.

`*CCc1cccc(*)c1` (repeat unit) displayed a glass transition temperature of 9.00 °C.

Compound `*Cc1c(C)c(C)c(CNC(=O)CCCCCC(C)CC(=O)N*)c(C)c1C` (repeat unit) yielded a glass transition temperature of 211.00 °C. In turn, `*Cc1cc(CNC(=O)CCCCC(=O)N*)cc(C(C)(C)C)c1` (repeat unit) yielded a glass transition temperature of 109.00 °C. Consider `*Oc1ccc(C(=O)OCCN(CCOC(=O)c2ccc(OC3(F)C(*)(F)C(F)(F)C3(F)F)cc2)c2ccc(/C=C/C3=CC(=C(C#N)C#N)CC(C)(C)C3)cc2)cc1` (repeat unit), for which the glass transition temperature was 143.00 °C. The same measure for `*Oc1ccc(CC(NC(=O)CCc2ccc(OC(=O)CCCC(*)=O)cc2)C(=O)OCc2ccccc2)cc1` (repeat unit): 66.00 °C; for `*Oc1ccc(CC(NC(=O)CCc2ccc(OC(=O)CCCCCCC(*)=O)cc2)C(=O)OCc2ccccc2)cc1` (repeat unit): 47.00 °C; for `*Oc1ccc(CC(NC(=O)CCc2ccc(OC(=O)COCCOCC(*)=O)cc2)C(=O)OCc2ccccc2)cc1` (repeat unit): 55.00 °C. The same measure for `*Oc1ccc(NC(=O)c2cc(C(=O)Nc3ccc(*)cc3)cc(C(C)(C)C)c2)cc1` (repeat unit): 268.00 °C; for `*Oc1ccc(NC(=O)c2cc(NC(=O)CCCCCCCCCCN3C(=O)c4ccccc4C3=O)cc(C(=O)Nc3ccc(*)cc3)c2)cc1` (repeat unit): 160.00 °C; for `*Oc1ccc(NC(=O)c2cc(NC(=O)c3ccc(OC(C)=O)cc3)cc(C(=O)Nc3ccc(*)cc3)c2)cc1` (repeat unit): 273.00 °C. The same measure for `*Oc1ccc(NC(=O)c2cc(NC(=O)c3ccccc3)cc(C(=O)Nc3ccc(*)cc3)c2)cc1` (repeat unit): 294.50 °C; for `*Oc1ccc(NC(=O)c2cc(NC(=O)c3ccncc3)cc(C(=O)Nc3ccc(*)cc3)c2)cc1` (repeat unit): 305.00 °C; for `*Oc1ccc(S(=O)(=O)c2ccc(Oc3ccc(NC(=O)c4cc(C(=O)Nc5ccc(*)cc5)cc(C(C)(C)C)c4)cc3)cc2)cc1` (repeat unit): 232.50 °C. `*Oc1ccc(S(=O)(=O)c2ccc(Oc3ccc(NC(=O)c4cc(NC(=O)c5ccc(OC(C)=O)cc5)cc(C(=O)Nc5ccc(*)cc5)c4)cc3)cc2)cc1` (repeat unit) displayed a glass transition temperature of 263.00 °C. The result for `*c1ccc(-c2nc3cc(Oc4ccc(NC(=O)CN5C(=O)c6ccc(C(c7ccc8c(c7)C(=O)N(CC(=O)Nc7ccc(Oc9ccc%10nc(-c%11ccccc%11)c(*)nc%10c9)cc7)C8=O)(C(F)(F)F)C(F)(F)F)cc6C5=O)cc4)ccc3nc2-c2ccccc2)cc1` (repeat unit) reads 280.00 °C. Consider `*c1ccc(-c2nc3cc(Oc4ccc(NC(=O)CN5C(=O)c6ccc(C(c7ccc8c(c7)C(=O)N(CC(=O)Nc7ccc(Oc9ccc%10nc(-c%11ccccc%11)c(-c%11ccc(N%12C(=O)c%13ccc%14c%15c(ccc(c%13%15)C%12=O)C(=O)N(*)C%14=O)cc%11)nc%10c9)cc7)C8=O)(C(F)(F)F)C(F)(F)F)cc6C5=O)cc4)ccc3nc2-c2ccccc2)cc1` (repeat unit), for which the glass transition temperature came out at 306.00 °C. The compound `*c1ccc(OCCN(CCOc2ccc(-c3nc4ccc(Oc5ccc6nc(*)c(-c7ccccc7)nc6c5)cc4nc3-c3ccccc3)cc2)c2ccc(/C=C/c3ccc([N+](=O)[O-])cc3)cc2)cc1` (repeat unit) had a glass transition temperature of 201.00 °C. The result for `*c1ccc(Oc2ccc(NC(=O)CN3C(=O)c4ccc(C(c5ccc6c(c5)C(=O)N(CC(=O)Nc5ccc(Oc7ccc(-c8nnc(*)o8)cc7)cc5)C6=O)(C(F)(F)F)C(F)(F)F)cc4C3=O)cc2)cc1` (repeat unit) reads 263.00 °C.
